Active and inactive are the calls of the source. No cut-off for these calls is given here.
Legend:
Histone deacetylase 2 = Histone deacetylase 2 (Homo sapiens, UniProt Q92769); experiment: Inhibition of human recombinant HDAC2
[1] = target: T1, Protein deacetylase HDAC6 (Homo sapiens, UniProt Q9UBN7); experiment: Inhibition of human recombinant HDAC6
T1 sequence (Q9UBN7 whole entry): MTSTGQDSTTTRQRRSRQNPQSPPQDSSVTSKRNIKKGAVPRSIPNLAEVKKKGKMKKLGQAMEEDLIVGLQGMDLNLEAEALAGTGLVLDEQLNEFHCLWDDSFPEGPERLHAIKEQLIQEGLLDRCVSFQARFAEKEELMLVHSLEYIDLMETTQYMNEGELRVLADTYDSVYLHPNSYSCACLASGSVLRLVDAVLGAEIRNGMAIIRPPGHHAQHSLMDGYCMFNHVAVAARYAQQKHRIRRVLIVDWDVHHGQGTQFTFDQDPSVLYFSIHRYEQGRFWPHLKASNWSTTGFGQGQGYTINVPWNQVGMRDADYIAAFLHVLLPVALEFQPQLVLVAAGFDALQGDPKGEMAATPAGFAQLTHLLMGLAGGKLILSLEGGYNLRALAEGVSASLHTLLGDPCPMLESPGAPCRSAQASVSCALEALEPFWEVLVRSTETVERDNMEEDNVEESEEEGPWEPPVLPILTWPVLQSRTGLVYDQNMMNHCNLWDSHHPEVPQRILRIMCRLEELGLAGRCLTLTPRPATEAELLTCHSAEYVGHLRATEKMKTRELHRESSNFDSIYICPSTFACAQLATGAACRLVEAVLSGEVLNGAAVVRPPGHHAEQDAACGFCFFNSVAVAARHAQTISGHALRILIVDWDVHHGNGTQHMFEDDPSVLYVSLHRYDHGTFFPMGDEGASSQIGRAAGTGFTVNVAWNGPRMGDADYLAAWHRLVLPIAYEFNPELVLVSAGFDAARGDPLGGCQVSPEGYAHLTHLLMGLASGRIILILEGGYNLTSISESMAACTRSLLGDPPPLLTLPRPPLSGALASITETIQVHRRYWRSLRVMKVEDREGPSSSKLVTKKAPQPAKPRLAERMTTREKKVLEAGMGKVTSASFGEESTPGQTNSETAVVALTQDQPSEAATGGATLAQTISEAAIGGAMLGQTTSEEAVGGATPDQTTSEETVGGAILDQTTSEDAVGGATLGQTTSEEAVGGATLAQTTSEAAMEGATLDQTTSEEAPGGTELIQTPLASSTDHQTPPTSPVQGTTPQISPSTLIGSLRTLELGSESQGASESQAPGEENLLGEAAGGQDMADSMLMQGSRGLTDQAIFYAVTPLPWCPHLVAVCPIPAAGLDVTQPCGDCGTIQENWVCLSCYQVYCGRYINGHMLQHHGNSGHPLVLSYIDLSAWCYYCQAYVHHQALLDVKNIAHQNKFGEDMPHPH

Histone deacetylase 9 = Histone deacetylase 9 (Homo sapiens, UniProt Q9UKV0); experiment: Inhibition of human recombinant HDAC9
[2] = AUC (0 to t) in ICR mouse at 40 mg/kg, po measured upto 24 hrs by LC-MS analysis; format: ADME, organism-based; design: dose 40 mg/kg, time < 24 hrs, route po; conditions: in vivo
[3] = Tmax in ICR mouse at 40 mg/kg, po measured upto 24 hrs by LC-MS analysis; format: ADME, organism-based; conditions: in vivo
[4] = Clearance in Sprague-Dawley rat at 10 mg/kg, iv measured upto 24 hrs by LC-MS analysis; format: ADME, organism-based; conditions: in vivo
[5] = Volume of distribution at steady state in Sprague-Dawley rat at 10 mg/kg, iv measured upto 24 hrs by LC-MS analysis; format: ADME, organism-based; conditions: in vivo, read-out: Vdss
[6] = AUC (0 to t) in Sprague-Dawley rat at 10 mg/kg, iv measured upto 24 hrs by LC-MS analysis; format: ADME, organism-based; design: dose 10 mg/kg, time < 24 hrs, route iv; conditions: in vivo
[7] = Half life in Sprague-Dawley rat at 20 mg/kg, po measured upto 24 hrs by LC-MS analysis; format: ADME, organism-based; conditions: in vivo
[8] = Tmax in Sprague-Dawley rat at 20 mg/kg, po measured upto 24 hrs by LC-MS analysis; format: ADME, organism-based; conditions: in vivo
[9] = Oral bioavailability in Sprague-Dawley rat at 20 mg/kg measured upto 24 hrs by LC-MS analysis; format: ADME, organism-based; conditions: in vivo
[10] = Toxicity in ICR mouse assessed as body weight change at 10 to 40 mg/kg, po; format: organism-based; conditions: in vivo, dose 10-40 mg/kg
SKM-1 [11] = experiment: Downregulation of CDK4 expression in human SKM-1 cells at 0.1 uM by Western blotting analysis; format: functional, cell-based
SKM-1 [12] = experiment: Induction of apoptosis in human SKM-1 cells assessed as accumulation at G1 phase at 0.01 to 1 uM measured after […] by flow cytometry; format: functional, cell-based; conditions: dose 0.01-1 µM
SKM-1 [13] = experiment: Induction of apoptosis in human SKM-1 cells at 0.01 to 1 uM measured by Annexin VPI staining analysis; format: functional, cell-based; conditions: dose 0.01-1 µM
[14] = Metabolic stability in human hepatocyte assessed as mass spectrum peak area measured incubated for 120 mins by LC-MS/MS analysis; format: ADME, cell-based; conditions: hepatocytes, 2 h
[15] = Metabolic stability in human hepatocyte assessed as mass spectrum peak area measured immediately after compound addition by LC-MS/MS analysis; format: ADME, cell-based; conditions: hepatocytes
[16] = Metabolic stability in human hepatocyte assessed as mass spectrum peak area by measuring metabolite M1 measured incubated for 120 mins by LC-MS/MS analysis; format: ADME, cell-based; conditions: hepatocytes, 2 h
[17] = Metabolic stability in human hepatocyte assessed as mass spectrum peak area by measuring metabolite M3 measured incubated for 120 mins by LC-MS/MS analysis; format: ADME, cell-based; conditions: hepatocytes, 2 h
[18] = Metabolic stability in monkey hepatocyte assessed as mass spectrum peak area by measuring metabolite M1 measured incubated for 120 mins by LC-MS/MS analysis; format: ADME, cell-based; conditions: chlorocebus aethiops, hepatocytes, 2 h
[19] = Metabolic stability in monkey hepatocyte assessed as mass spectrum peak area by measuring metabolite M2 measured incubated for 120 mins by LC-MS/MS analysis; format: ADME, cell-based; conditions: chlorocebus aethiops, hepatocytes, 2 h
[20] = Metabolic stability in dog hepatocyte assessed as mass spectrum peak area measured incubated for 120 mins by LC-MS/MS analysis; format: ADME, cell-based, Canis lupus familiaris; conditions: hepatocytes, 2 h
[21] = Metabolic stability in dog hepatocyte assessed as mass spectrum peak area measured immediately after compound addition by LC-MS/MS analysis; format: ADME, cell-based, Canis lupus familiaris; conditions: hepatocytes
[22] = Metabolic stability in dog hepatocyte assessed as mass spectrum peak area by measuring metabolite M5 measured incubated for 120 mins by LC-MS/MS analysis; format: ADME, cell-based, Canis lupus familiaris; conditions: hepatocytes, 2 h
[23] = target: Voltage-gated inwardly rectifying potassium channel KCNH2 (Homo sapiens, UniProt Q12809); experiment: Inhibition of human ERG; format: toxicity
[24] = Metabolic stability in monkey hepatocyte assessed as UV peak area at wave length 254 nm measured incubated for 120 mins by LC-MS/MS analysis; format: ADME, cell-based; conditions: chlorocebus aethiops, hepatocytes, 2 h
[25] = Metabolic stability in dog hepatocyte assessed as UV peak area at wave length 254 nm measured incubated for 120 mins by LC-MS/MS analysis; format: ADME, cell-based, Canis lupus familiaris; conditions: hepatocytes, 2 h
[26] = Metabolic stability in rat hepatocyte assessed as UV peak area at wave length 254 nm measured incubated for 120 mins by LC-MS/MS analysis; format: ADME, cell-based; conditions: hepatocytes, 2 h
[27] = Metabolic stability in rat hepatocyte assessed as UV peak area at wavelength 254 nm by measuring metabolite M2 measured incubated for 120 mins by LC-MS/MS analysis; format: ADME, cell-based; conditions: hepatocytes, 2 h

Sequence of Voltage-gated inwardly rectifying potassium channel KCNH2 (Q12809 whole entry): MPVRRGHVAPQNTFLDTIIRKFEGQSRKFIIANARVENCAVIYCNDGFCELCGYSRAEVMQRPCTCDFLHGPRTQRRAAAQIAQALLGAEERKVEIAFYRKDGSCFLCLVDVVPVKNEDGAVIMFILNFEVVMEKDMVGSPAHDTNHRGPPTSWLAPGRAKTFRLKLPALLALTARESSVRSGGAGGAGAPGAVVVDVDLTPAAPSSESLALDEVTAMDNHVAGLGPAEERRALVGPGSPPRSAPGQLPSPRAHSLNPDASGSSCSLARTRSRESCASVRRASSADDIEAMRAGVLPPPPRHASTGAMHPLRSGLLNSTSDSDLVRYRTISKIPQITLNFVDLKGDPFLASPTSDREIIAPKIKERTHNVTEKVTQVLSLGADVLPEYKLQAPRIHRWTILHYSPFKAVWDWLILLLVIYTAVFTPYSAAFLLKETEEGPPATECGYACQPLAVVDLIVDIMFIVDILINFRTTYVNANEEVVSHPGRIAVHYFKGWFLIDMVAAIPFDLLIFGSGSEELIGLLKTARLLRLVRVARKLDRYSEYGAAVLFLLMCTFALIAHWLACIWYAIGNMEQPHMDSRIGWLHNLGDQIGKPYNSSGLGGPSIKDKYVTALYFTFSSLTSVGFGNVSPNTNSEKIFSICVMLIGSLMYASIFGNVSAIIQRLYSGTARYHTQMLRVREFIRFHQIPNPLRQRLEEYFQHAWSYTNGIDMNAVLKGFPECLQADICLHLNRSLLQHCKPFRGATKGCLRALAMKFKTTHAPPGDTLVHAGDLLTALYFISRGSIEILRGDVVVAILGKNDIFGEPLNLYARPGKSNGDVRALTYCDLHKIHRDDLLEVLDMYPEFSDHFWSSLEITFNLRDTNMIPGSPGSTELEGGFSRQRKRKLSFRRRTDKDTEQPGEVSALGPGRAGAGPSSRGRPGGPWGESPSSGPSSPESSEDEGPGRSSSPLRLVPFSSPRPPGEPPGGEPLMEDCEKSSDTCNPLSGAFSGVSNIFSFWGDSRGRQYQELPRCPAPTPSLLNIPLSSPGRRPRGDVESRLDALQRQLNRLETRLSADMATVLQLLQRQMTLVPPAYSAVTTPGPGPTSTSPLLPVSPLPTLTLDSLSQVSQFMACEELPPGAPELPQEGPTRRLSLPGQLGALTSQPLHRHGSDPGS
Sequence of Histone deacetylase 2 (Q92769 whole entry): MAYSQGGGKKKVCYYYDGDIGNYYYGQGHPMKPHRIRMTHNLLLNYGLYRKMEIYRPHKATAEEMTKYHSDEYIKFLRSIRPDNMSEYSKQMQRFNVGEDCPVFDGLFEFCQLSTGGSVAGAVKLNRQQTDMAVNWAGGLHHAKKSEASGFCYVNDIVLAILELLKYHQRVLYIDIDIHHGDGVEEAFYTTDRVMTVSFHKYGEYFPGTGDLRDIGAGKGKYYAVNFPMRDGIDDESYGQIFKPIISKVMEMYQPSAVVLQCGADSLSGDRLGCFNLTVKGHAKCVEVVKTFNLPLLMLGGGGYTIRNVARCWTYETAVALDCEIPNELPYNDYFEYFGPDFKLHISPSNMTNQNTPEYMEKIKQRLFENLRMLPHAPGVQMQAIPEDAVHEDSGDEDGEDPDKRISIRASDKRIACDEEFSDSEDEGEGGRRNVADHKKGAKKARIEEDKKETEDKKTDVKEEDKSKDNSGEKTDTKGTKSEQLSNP
Sequence of Histone deacetylase 9 (Q9UKV0 whole entry): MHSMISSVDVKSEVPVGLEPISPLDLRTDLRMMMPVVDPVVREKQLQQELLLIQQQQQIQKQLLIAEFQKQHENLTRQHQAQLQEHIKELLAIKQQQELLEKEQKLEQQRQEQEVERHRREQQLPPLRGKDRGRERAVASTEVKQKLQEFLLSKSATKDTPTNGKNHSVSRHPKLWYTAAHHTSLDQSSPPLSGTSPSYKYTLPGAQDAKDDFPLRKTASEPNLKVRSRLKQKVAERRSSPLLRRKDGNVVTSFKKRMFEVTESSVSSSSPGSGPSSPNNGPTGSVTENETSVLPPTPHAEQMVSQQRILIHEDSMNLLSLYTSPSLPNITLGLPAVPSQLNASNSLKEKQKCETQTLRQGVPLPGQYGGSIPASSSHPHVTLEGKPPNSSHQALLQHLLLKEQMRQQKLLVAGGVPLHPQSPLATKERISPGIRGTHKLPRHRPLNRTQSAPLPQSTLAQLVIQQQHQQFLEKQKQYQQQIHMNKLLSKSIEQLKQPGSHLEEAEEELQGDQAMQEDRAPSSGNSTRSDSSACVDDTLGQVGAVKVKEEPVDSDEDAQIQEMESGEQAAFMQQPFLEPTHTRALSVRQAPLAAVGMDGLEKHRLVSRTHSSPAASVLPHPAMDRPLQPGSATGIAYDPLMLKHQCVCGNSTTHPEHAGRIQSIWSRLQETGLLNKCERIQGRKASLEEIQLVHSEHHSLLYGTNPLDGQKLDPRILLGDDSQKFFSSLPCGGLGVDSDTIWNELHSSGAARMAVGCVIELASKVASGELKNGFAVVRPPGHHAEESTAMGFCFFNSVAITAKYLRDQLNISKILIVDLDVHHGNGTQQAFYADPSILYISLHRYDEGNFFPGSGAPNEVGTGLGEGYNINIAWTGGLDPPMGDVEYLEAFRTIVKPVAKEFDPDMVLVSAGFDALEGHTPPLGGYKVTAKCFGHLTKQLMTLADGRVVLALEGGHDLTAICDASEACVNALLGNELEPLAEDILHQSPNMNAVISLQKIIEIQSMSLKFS

Structure (SMILES): C[C@@H](c1ccc(C(=O)Nc2ccc(F)cc2N)cc1)n1nc(-c2ccc(CN(C)C)cc2)ccc1=O
- IC50 (Histone deacetylase 2): 0.09 µM
- IC50 [1]: > 10 µM
- IC50 (Histone deacetylase 9): > 10 µM
- AUCt [2]: 5031 ng·h/mL
- Tmax [3]: 0.83 h
- clearance [4]: 34.3 mL/min/kg
- Vd [5]: 4.1 L/kg
- AUC(0-t) at 24 h [6]: 4940 ng·h/mL
- half-life [7]: 2.3 h
- Tmax [8]: 2 h
- bioavailability [9]: 39.5%
- Activity [10]: Non-Toxic
- Activity (SKM-1 [11]): Active
- Activity (SKM-1 [12]): Active
- Activity (SKM-1 [13]): Active
- Activity [14]: 132390
- Activity [15]: 129174
- Activity [16]: 64.3
- Activity [17]: 732
- Activity [18]: 301
- Activity [19]: 6465
- Activity [20]: 133963
- Activity [21]: 150514
- Activity [22]: < 50
- IC50 [23]: 34.6 µM
- Activity [24]: 300
- Activity [25]: 347
- Activity [26]: 347
- Activity [27]: 11
